# Assay results: patent US20080194482A1, “Selective Apac2 Receptor Peptide Agonists” (priority 2005, published 2008)
# Square brackets hold non-standard residues; d marks the D form. Peptide text beside a SMILES is read from it. * marks the point of attachment. Orn = NCCC[C@H](N)C(=O)O; Hexanoyl = CCCCCC(=O)*; Aib = CC(C)(N)C(=O)O
# Legend:
# human PAC1 = molecular target: T1, human PAC1 (Homo sapiens, UniProt P41586); assay: Filter binding assay, 125I-labeled PACAP-27 tracer, PAC1 membranes; conditions: read-out: Human PAC1 Receptor Binding (IC50; nM)
# T1 construct: expressed in transfected cells
# T1 sequence (P41586 21-468): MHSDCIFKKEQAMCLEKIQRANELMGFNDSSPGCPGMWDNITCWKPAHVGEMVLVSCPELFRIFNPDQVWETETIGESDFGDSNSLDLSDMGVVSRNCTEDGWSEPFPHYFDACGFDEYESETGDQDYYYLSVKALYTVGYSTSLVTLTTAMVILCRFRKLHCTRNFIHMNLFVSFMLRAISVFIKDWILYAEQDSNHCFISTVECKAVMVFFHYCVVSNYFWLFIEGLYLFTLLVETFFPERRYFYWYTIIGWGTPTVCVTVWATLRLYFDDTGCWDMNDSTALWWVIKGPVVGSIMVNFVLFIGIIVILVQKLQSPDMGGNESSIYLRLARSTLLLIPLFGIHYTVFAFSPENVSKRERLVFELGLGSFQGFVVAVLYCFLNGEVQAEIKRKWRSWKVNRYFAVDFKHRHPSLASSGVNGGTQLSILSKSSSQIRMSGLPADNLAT
# [1] = Rat serum stability (activity remaining, CHO-VPAC2 DiscoveRx read-out); type: in vitro ADME
# Procedure: The rat serum is stored at 4° C. until use and is used within two weeks. […] The aliquot is stored with aprotinin at 4° C. The aliquot is stored without aprotinin at 37° C. The aliquots are incubated overnight. […] The plate(s) are washed with cells twice in incubation buffer. The plates are allowed to hold 50 μL incubation media per well for 15 minutes. 50 μL solution per well is transferred to the cells from the plate prepared with 11 serial 5× dilutions of peptide for the 4° C. and 37° C. aliquot for each peptide studied, using the maximal concentrations that are indicated by the primary screen, in duplicate. This step dilutes the peptide concentration by a factor of two. The cells are incubated at room temperature for 30 minutes. […] The cells are incubated on the shaker (300 rpm) for 1 hour. Normal procedure with the DiscoveRx kit is followed. cAMP standards are included in column 12. EC50 values are determined from the cAMP assay data.
# human VPAC2 = molecular target: T2, human VPAC2 (Homo sapiens, UniProt P41587); assay: Alpha screen cAMP assay, in vitro potency at human VPAC2 receptor; type: cell-based; conditions: cAMP generation; single result from two analyses in a single run, some values average of more than one experiment
# T2 construct: expressed in transfected cells
# T2 sequence (P41587 24-438): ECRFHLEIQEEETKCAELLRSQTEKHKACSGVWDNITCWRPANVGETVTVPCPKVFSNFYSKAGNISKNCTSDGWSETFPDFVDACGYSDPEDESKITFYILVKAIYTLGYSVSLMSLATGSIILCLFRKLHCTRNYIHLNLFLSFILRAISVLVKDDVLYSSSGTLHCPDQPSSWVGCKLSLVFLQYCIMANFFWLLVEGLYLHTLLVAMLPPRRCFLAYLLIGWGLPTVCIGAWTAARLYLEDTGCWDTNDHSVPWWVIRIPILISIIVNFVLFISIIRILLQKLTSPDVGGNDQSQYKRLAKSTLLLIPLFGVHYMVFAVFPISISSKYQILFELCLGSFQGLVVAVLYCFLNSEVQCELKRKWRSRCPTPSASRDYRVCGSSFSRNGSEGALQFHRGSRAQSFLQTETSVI
# Procedure: Alpha screen: Cells are washed in the culture flask once with PBS. Then, the cells are rinsed with enzyme free dissociation buffer. The dissociated cells are removed. The cells are then spun down and washed in stimulation buffer. For each data point, 50,000 cells suspended in stimulation buffer are used. To this buffer, Alpha screen acceptor beads are added along with the stimuli. This mixture is incubated for 60 minutes. Lysis buffer and Alpha screen donor beads are added and are incubated for 60 to 120 minutes. The Alpha screen signal (indicative of intracellular cAMP levels) is read in a suitable instrument (e.g. AlphaQuest from Perkin-Elmer). Steps including Alpha screen donor and acceptor beads are performed in reduced light. The EC50 for cAMP generation is calculated from the raw signal or is based on absolute cAMP levels as determined by a standard curve performed on each plate.
# Results for each agonist are, at minimum, from two analyses performed in a single run. For some agonists, the results are the mean of more than one run. The tested peptide concentrations are: 10000, 1000, 100, 10, 3, 1, 0.1, 0.01, 0.003, 0.001, 0.0001 and 0.00001 nM.
# human VPAC1 = molecular target: T3, human VPAC1 (Homo sapiens, UniProt P32241); assay: Filter binding assay, 125I-labeled VIP tracer, VPAC1 membranes; conditions: read-out: Human VPAC1 Receptor Binding (IC50; nM)
# T3 construct: expressed in transfected cells
# T3 sequence (P32241 31-457): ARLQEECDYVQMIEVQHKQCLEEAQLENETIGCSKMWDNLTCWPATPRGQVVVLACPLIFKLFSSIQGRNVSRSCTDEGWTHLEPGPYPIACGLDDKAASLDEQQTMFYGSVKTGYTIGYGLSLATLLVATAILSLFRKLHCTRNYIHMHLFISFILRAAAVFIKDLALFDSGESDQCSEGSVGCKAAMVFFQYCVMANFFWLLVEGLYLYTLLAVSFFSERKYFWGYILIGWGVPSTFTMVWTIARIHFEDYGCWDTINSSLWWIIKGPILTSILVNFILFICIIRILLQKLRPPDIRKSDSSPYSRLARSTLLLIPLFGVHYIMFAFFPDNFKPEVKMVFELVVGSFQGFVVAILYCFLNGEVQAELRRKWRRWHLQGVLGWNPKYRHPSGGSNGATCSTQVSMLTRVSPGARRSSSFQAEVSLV
SMILES,IC50 (human PAC1) [nM],Rat Serum Stability (estimated purity in % after overnight incub.) [1] [%],EC50 (human VPAC2) [nM],IC50 (human VPAC1) [nM]
CCCCCC(=O)N[C@@H](Cc1c[nH]cn1)C(=O)N[C@@H](CO)C(=O)N[C@@H](CC(=O)O)C(=O)N[C@@H](C)C(=O)N[C@H](C(=O)N[C@@H](Cc1ccccc1)C(=O)N[C@H](C(=O)N[C@@H](CC(=O)O)C(=O)N[C@@H](CC(N)=O)C(=O)N[C@@H](Cc1ccc(O)cc1)C(=O)N[C@H](C(=O)N[C@@H](CCCN)C(=O)N[C@@H](CC(C)C)C(=O)N[C@@H](CCCNC(=N)N)C(=O)NC(C)(C)C(=O)N[C@@H](CCC(N)=O)C(=O)N[C@H](C(=O)N[C@@H](C)C(=O)N[C@@H](C)C(=O)NC(C)(C)C(=O)N[C@@H](CO)C(=O)N[C@@H](Cc1ccc(O)cc1)C(=O)N[C@@H](CC(C)C)C(=O)N[C@@H](CCC(N)=O)C(=O)N[C@@H](CO)C(=O)N[C@H](C(=O)N[C@@H](CCCN)C(=O)N[C@@H](CC(N)=O)C(=O)N[C@@H](CCCN)C(=O)NCC(=O)NCC(=O)N1CCC[C@H]1C(=O)N[C@@H](CO)C(=O)N[C@@H](CO)C(=O)NCC(=O)N[C@@H](C)C(=O)N1CCC[C@H]1C(=O)N1CCC[C@H]1C(=O)N1CCC[C@H]1C(=O)N[C@@H](CO)C(=O)O)[C@@H](C)CC)C(C)C)[C@@H](C)O)[C@@H](C)O)C(C)C [Agonist P386] (Hexanoyl-HSDAVFTDNYT[Orn]LR[Aib]QVAA[Aib]SYLQSI[Orn]N[Orn]GGPSSGAPPPS-OH; C-terminus assumed),> 25000,71.47,0.65,> 3000
CCCCCC(=O)N[C@@H](Cc1c[nH]cn1)C(=O)N[C@@H](CO)C(=O)N[C@@H](CC(=O)O)C(=O)N[C@@H](C)C(=O)N[C@H](C(=O)N[C@@H](Cc1ccccc1)C(=O)N[C@H](C(=O)N[C@@H](CC(=O)O)C(=O)N[C@@H](CC(N)=O)C(=O)N[C@@H](Cc1ccc(O)cc1)C(=O)N[C@H](C(=O)N[C@@H](CCCN)C(=O)N[C@@H](CO)C(=O)N[C@@H](CCCNC(=N)N)C(=O)NC(C)(C)C(=O)N[C@@H](CCC(N)=O)C(=O)N[C@H](C(=O)N[C@@H](C)C(=O)N[C@@H](C)C(=O)NC(C)(C)C(=O)N[C@@H](CCCCN)C(=O)N[C@@H](Cc1ccc(O)cc1)C(=O)N[C@@H](CC(C)C)C(=O)N[C@@H](CCC(N)=O)C(=O)N[C@@H](CO)C(=O)N[C@H](C(=O)N[C@@H](CCCN)C(=O)N[C@@H](CC(N)=O)C(=O)N[C@@H](CCCN)C(=O)NCC(=O)NCC(=O)N1CCC[C@H]1C(=O)N[C@@H](CO)C(=O)N[C@@H](CO)C(=O)NCC(=O)N[C@@H](C)C(=O)N1CCC[C@H]1C(=O)N1CCC[C@H]1C(=O)N1CCC[C@H]1C(=O)N[C@@H](CO)C(=O)O)[C@@H](C)CC)C(C)C)[C@@H](C)O)[C@@H](C)O)C(C)C [Agonist P391] (Hexanoyl-HSDAVFTDNYT[Orn]SR[Aib]QVAA[Aib]KYLQSI[Orn]N[Orn]GGPSSGAPPPS-OH; C-terminus assumed),> 25000,–,0.48,–
CCCCCC(=O)N[C@@H](Cc1c[nH]cn1)C(=O)N[C@@H](CO)C(=O)N[C@@H](CC(=O)O)C(=O)N[C@@H](C)C(=O)N[C@H](C(=O)N[C@@H](Cc1ccccc1)C(=O)N[C@H](C(=O)N[C@@H](CC(=O)O)C(=O)N[C@@H](CC(N)=O)C(=O)N[C@@H](Cc1ccc(O)cc1)C(=O)N[C@H](C(=O)N[C@@H](CCCN)C(=O)N[C@@H](CC(C)C)C(=O)N[C@@H](CC(C)C)C(=O)N[C@@H](C)C(=O)N[C@@H](CCCCN)C(=O)N[C@@H](CC(C)C)C(=O)N[C@@H](C)C(=O)N[C@@H](CC(C)C)C(=O)N[C@@H](CCC(N)=O)C(=O)N[C@@H](CCCCN)C(=O)N[C@@H](Cc1ccc(O)cc1)C(=O)N[C@@H](CC(C)C)C(=O)N[C@@H](CCC(N)=O)C(=O)N[C@@H](CO)C(=O)N[C@H](C(=O)N[C@@H](CCCN)C(=O)N[C@@H](CC(N)=O)C(=O)N[C@@H](CCCN)C(=O)NCC(=O)NCC(=O)N1CCC[C@H]1C(=O)N[C@@H](CO)C(=O)N[C@@H](CO)C(=O)NCC(=O)N[C@@H](C)C(=O)N1CCC[C@H]1C(=O)N1CCC[C@H]1C(=O)N1CCC[C@H]1C(=O)N[C@@H](CO)C(=O)O)[C@@H](C)CC)[C@@H](C)O)[C@@H](C)O)C(C)C [Agonist P371] (Hexanoyl-HSDAVFTDNYT[Orn]LLAKLALQKYLQSI[Orn]N[Orn]GGPSSGAPPPS-OH; C-terminus assumed),> 25000,–,0.13,–
CCCCCC(=O)N[C@@H](Cc1c[nH]cn1)C(=O)N[C@@H](CO)C(=O)N[C@@H](CC(=O)O)C(=O)N[C@@H](C)C(=O)N[C@H](C(=O)N[C@@H](Cc1ccccc1)C(=O)N[C@H](C(=O)N[C@@H](CCC(=O)O)C(=O)N[C@@H](CCC(N)=O)C(=O)N[C@@H](Cc1ccc(OC)cc1)C(=O)N[C@H](C(=O)N[C@@H](CCCN)C(=O)N[C@@H](CC(C)C)C(=O)N[C@@H](CCCNC(=N)N)C(=O)NC(C)(C)C(=O)N[C@@H](CCC(N)=O)C(=O)N[C@@H](CC(C)C)C(=O)N[C@@H](C)C(=O)N[C@@H](C)C(=O)NC(C)(C)C(=O)N[C@@H](CCCN)C(=O)N[C@@H](Cc1ccc(OC)cc1)C(=O)N[C@@H](CC(C)C)C(=O)N[C@@H](CCC(N)=O)C(=O)N[C@@H](CO)C(=O)N[C@H](C(=O)N[C@@H](CCCN)C(=O)N[C@@H](CCCN)C(=O)NCC(=O)NCC(=O)N1CCC[C@H]1C(=O)N[C@@H](CO)C(=O)N[C@@H](CO)C(=O)NCC(=O)N[C@@H](C)C(=O)N1CCC[C@H]1C(=O)N1CCC[C@H]1C(=O)N1CCC[C@H]1C(=O)N[C@@H](CO)C(=O)O)[C@@H](C)CC)[C@@H](C)O)[C@@H](C)O)C(C)C [Agonist P418] (Hexanoyl-HSDAVFTEQY(Me)T[Orn]LR[Aib]QLAA[Aib][Orn]Y(Me)LQSI[Orn][Orn]GGPSSGAPPPS-OH; C-terminus assumed),> 25000,99.96,–,> 3000
CCCCCC(=O)N[C@@H](Cc1c[nH]cn1)C(=O)N[C@@H](CO)C(=O)N[C@@H](CC(=O)O)C(=O)N[C@@H](C)C(=O)N[C@H](C(=O)N[C@@H](Cc1ccccc1)C(=O)N[C@H](C(=O)N[C@@H](CC(=O)O)C(=O)N[C@@H](CC(N)=O)C(=O)N[C@@H](Cc1ccc(O)cc1)C(=O)N[C@H](C(=O)N[C@@H](CCC(N)=O)C(=O)N[C@@H](CC(C)C)C(=O)N[C@@H](CCCNC(=N)N)C(=O)NC(C)(C)C(=O)N[C@@H](CCC(N)=O)C(=O)N[C@H](C(=O)N[C@@H](C)C(=O)N[C@@H](C)C(=O)NC(C)(C)C(=O)N[C@@H](CCCCN)C(=O)N[C@@H](Cc1ccc(O)cc1)C(=O)N[C@@H](CC(C)C)C(=O)N[C@@H](CCC(N)=O)C(=O)N[C@@H](CO)C(=O)N[C@H](C(=O)N[C@@H](CCCN)C(=O)N[C@@H](CC(N)=O)C(=O)N[C@@H](CCCN)C(=O)NCC(=O)NCC(=O)N1CCC[C@H]1C(=O)N[C@@H](CO)C(=O)N[C@@H](CO)C(=O)NCC(=O)N[C@@H](C)C(=O)N1CCC[C@H]1C(=O)N1CCC[C@H]1C(=O)N1CCC[C@H]1C(=O)N[C@@H](CO)C(=O)O)[C@@H](C)CC)C(C)C)[C@@H](C)O)[C@@H](C)O)C(C)C [Agonist P368] (Hexanoyl-HSDAVFTDNYTQLR[Aib]QVAA[Aib]KYLQSI[Orn]N[Orn]GGPSSGAPPPS-OH; C-terminus assumed),> 25000,99.82,–,> 3000
